Key:
[1] = biological target: T1, Recombinant (1-346) HPK1 (h) (Homo sapiens, UniProt Q92918); experiment: HPK1 Human STE Kinase Enzymatic Radiometric Assay; format: biochemical; conditions: read-out: HPK1 IC50 nM Range*
T1 construct: Recombinant (1-346) HPK1 (h) is incubated with 8 mM MOPS pH 7.0
T1 sequence (Q92918 1-346): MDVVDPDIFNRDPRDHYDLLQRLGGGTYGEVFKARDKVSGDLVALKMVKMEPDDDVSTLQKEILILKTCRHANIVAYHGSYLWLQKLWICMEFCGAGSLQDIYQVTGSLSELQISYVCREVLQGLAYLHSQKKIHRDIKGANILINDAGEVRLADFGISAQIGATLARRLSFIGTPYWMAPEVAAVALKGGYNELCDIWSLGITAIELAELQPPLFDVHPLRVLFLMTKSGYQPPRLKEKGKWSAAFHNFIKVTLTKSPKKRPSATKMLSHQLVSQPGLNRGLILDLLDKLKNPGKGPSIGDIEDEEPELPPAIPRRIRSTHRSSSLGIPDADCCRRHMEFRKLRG
Protocol: A stock solution of 10 mM of test compound is prepared in DMSO. The compound plate was prepared by 3-fold and 9-point serial dilutions. […] The reaction is initiated by The addition of the Mg/ATP mix. After incubation for 40 minutes at RT, the reaction is stopped by the addition of phosphoric acid to a concentration of 0.5%.

[2] = biological target: Lck (h) (Homo sapiens, UniProt P06239); experiment: Lck Human  Kinase Enzymatic Radiometric Assay; format: biochemical; conditions: read-out: Lck IC50 nM Range*
Chain of Lck (h) (P06239 whole entry): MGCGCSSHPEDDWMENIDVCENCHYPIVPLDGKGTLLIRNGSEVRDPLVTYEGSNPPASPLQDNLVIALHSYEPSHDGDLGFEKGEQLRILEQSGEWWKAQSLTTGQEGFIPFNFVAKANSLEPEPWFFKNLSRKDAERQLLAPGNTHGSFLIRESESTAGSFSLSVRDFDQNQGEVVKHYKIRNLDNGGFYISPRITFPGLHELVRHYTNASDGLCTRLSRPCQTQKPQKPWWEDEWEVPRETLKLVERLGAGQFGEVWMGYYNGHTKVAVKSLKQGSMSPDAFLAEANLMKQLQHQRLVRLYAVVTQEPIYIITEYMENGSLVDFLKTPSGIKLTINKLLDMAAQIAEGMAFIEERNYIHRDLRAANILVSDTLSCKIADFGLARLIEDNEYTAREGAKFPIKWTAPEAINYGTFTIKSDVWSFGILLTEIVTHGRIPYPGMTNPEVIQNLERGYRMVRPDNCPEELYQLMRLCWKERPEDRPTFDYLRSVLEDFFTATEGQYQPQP
In short: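 Substrate 33P-incorporation measured by scintillation counting after spotting on P30 filtermat and phosphoric acid washes. Human Lck reacted 40 min at RT in 50 mM Tris pH 7.5 with 10 mM MgAcetate, [gamma-33P]-ATP, 250 uM Cdc2 peptide, 0.1 mM EGTA and 0.1 mM Na3VO4.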

Row | Compound | IC50 [1] | IC50 [2]
1 | COCCN1CCN(c2ccc(-c3cc(-c4cc5c(cc4F)C(=O)NCC5)c(N)nc3F)cc2)CC1 [I-212, 6-(2-amino-6-fluoro-5-(4-(4-(2-methoxyethyl)piperazin-1-yl)phenyl)pyridin-3-yl)-7-fluoro-3,4-dihydroisoquinolin-1(2H)-one] | 0.1 to 10 nM | > 1000 nM
2 | Nc1nc(F)c(-c2ccc(N3CCN(CC4CC4)CC3)cc2)cc1-c1cc2c(cc1F)C(=O)NCC2 [I-213, 6-(2-amino-5-(4-(4-(cyclopropylmethyl)piperazin-1-yl)phenyl)-6-fluoropyridin-3-yl)-7-fluoro-3,4-dihydroisoquinolin-1(2H)-one] | 0.1 to 10 nM | > 1000 nM
3 | COCCN1CCC2(CC1)OCc1cc(-c3cc(-c4ccc5c(c4)CCNC5=O)c(N)nc3F)ccc1O2 [I-214, 6-(2-amino-6-fluoro-5-(1′-(2-methoxyethyl)-4H-spiro[benzo[d][1,3]dioxine-2,4′-piperidin]-6-yl)pyridin-3-yl)-3,4-dihydroisoquinolin-1(2H)-one] | 0.1 to 10 nM | > 1000 nM
4 | COCCN1CCC2(CC1)CC(=O)c1cc(-c3cc(-c4ccc5c(c4)CCNC5=O)c(N)nc3F)ccc1O2 [I-215, 6-(6-amino-2-fluoro-5-(1-oxo-1,2,3,4-tetrahydroisoquinolin-6-yl)pyridin-3-yl)-1′-(2-methoxyethyl)spiro[chromane-2,4′-piperidin]-4-one] | 0.1 to 10 nM | > 1000 nM
5 | COCCN1CCC2(CCc3cc(-c4cc(-c5ccc6c(c5)CCNC6=O)c(N)nc4F)ccc3O2)CC1 [I-216, 6-(2-amino-6-fluoro-5-(1′-(2-methoxyethyl)spiro[chromane-2,4′-piperidin]-6-yl)pyridin-3-yl)-3,4-dihydroisoquinolin-1(2H)-one] | 0.1 to 10 nM | > 1000 nM
6 | COCCN1CCC(Oc2ccc(-c3cc(-c4ccc5c(c4)CCNC5=O)c(N)nc3F)cc2C#N)CC1 [I-217, 5-(6-amino-2-fluoro-5-(1-oxo-1,2,3,4-tetrahydroisoquinolin-6-yl)pyridin-3-yl)-2-((1-(2-methoxyethyl)piperidin-4-yl)oxy)benzonitrile] | 0.1 to 10 nM | > 1000 nM
7 | CC(C)N1CCC2(CC1)OCc1cc(-c3cc(-c4ccc5c(c4)CCNC5=O)c(N)nc3F)ccc1O2 [I-218, 6-(2-amino-6-fluoro-5-(1′-isopropyl-4H-spiro[benzo[d][1,3]dioxine-2,4′-piperidin]-6-yl)pyridin-3-yl)-3,4-dihydroisoquinolin-1(2H)-one] | 0.1 to 10 nM | > 1000 nM
8 | Nc1nc(F)c(-c2ccc(N3CCNCC3)c(C(F)(F)F)c2)cc1-c1cc2c(cc1F)C(=O)NCC2 [I-219, 6-(2-amino-6-fluoro-5-(4-(piperazin-1-yl)-3-(trifluoromethyl)phenyl)pyridin-3-yl)-7-fluoro-3,4-dihydroisoquinolin-1(2H)-one] | 0.1 to 10 nM | > 1000 nM
9 | COCC(=O)N1C[C@H]2C[C@@]2(c2ccc(-c3cc(-c4ccc5c(c4)CCNC5=O)c(N)nc3F)cc2)C1 [I-220, 6-(2-amino-6-fluoro-5-(4-((1R,5S)-3-(2-methoxyacetyl)-3-azabicyclo[3.1.0]hexan-1-yl)phenyl)pyridin-3-yl)-3,4-dihydroisoquinolin-1(2H)-one] | 0.1 to 10 nM | > 1000 nM
10 | CC(=O)N1CCN(c2ccc(-c3cc(-c4cc5c(cc4F)C(=O)NCC5)c(N)nc3F)cn2)CC1 [I-221, 6-(6′-(4-acetylpiperazin-1-yl)-6-amino-2-fluoro-[3,3′-bipyridin]-5-yl)-7-fluoro-3,4-dihydroisoquinolin-1(2H)-one 2,2,2-trifluoroacetate] | 11 to 100 nM | > 1000 nM
11 | CC(C)N1CCC2(CC1)CC(=O)c1cc(-c3cc(-c4ccc5c(c4)CCNC5=O)c(N)nc3F)ccc1O2 [I-222, 6-(6-amino-2-fluoro-5-(1-oxo-1,2,3,4-tetrahydroisoquinolin-6-yl)pyridin-3-yl)-1′-isopropylspiro[chromane-2,4′-piperidin]-4-one] | 0.1 to 10 nM | > 1000 nM
12 | CC(C)N1CCC2(CCc3cc(-c4cc(-c5ccc6c(c5)CCNC6=O)c(N)nc4F)ccc3O2)CC1 [I-223, 6-(2-amino-6-fluoro-5-(1′-isopropylspiro[chromane-2,4′-piperidin]-6-yl)pyridin-3-yl)-3,4-dihydroisoquinolin-1(2H)-one] | 0.1 to 10 nM | > 1000 nM
13 | CC(C)N1CCC(Oc2ccc(-c3cc(-c4ccc5c(c4)CCNC5=O)c(N)nc3F)cc2C#N)CC1 [I-224, 5-(6-amino-2-fluoro-5-(1-oxo-1,2,3,4-tetrahydroisoquinolin-6-yl)pyridin-3-yl)-2-((1-isopropylpiperidin-4-yl)oxy)benzonitrile] | 0.1 to 10 nM | > 1000 nM
14 | CN(C)CC(=O)N1C[C@H]2C[C@@]2(c2ccc(-c3cc(-c4ccc5c(c4)CCNC5=O)c(N)nc3F)cc2)C1 [I-225, 6-(2-amino-5-(4-((1R,5S)-3-(dimethylglycyl)-3-azabicyclo[3.1.0]hexan-1-yl)phenyl)-6-fluoropyridin-3-yl)-3,4-dihydroisoquinolin-1(2H)-one] | 0.1 to 10 nM | > 1000 nM
15 | CC(C)N1CCN(c2ccc(-c3cc(-c4cc5c(cc4F)C(=O)NCC5)c(N)nc3F)cn2)CC1 [I-226, 6-(6-amino-2-fluoro-6′-(4-isopropylpiperazin-1-yl)-[3,3′-bipyridin]-5-yl)-7-fluoro-3,4-dihydroisoquinolin-1(2H)-one] | 0.1 to 10 nM | > 1000 nM
16 | Nc1cc2cc(-c3cc(-c4ccc5c(c4)CCNC5=O)c(N)nc3F)c(F)c(Cl)c2cn1 [I-227, 6-(2-amino-5-(3-amino-8-chloro-7-fluoroisoquinolin-6-yl)-6-fluoropyridin-3-yl)-3,4-dihydroisoquinolin-1(2H)-one] | 11 to 100 nM | > 1000 nM
17 | CC(C)N1CCc2cc(-c3cc(-c4ccc5c(c4)CCNC5=O)c(N)nc3F)nn2CC1=O [I-228, 2-(6-amino-2-fluoro-5-(1-oxo-1,2,3,4-tetrahydroisoquinolin-6-yl)pyridin-3-yl)-6-isopropyl-5,6-dihydro-4H-pyrazolo[1,5-d][1,4]diazepin-7(8H)-one] | 11 to 100 nM | > 1000 nM
18 | Nc1nc(F)c(-c2cc3n(n2)CC(=O)NCC3)cc1-c1ccc2c(c1)CCNC2=O [I-229, 2-(6-amino-2-fluoro-5-(1-oxo-1,2,3,4-tetrahydroisoquinolin-6-yl)pyridin-3-yl)-5,6-dihydro-4H-pyrazolo[1,5-d][1,4]diazepin-7(8H)-one] | 11 to 100 nM | > 1000 nM
19 | CN1CC=C(c2ccc(-c3cc(-c4ccc5c(c4)CCNC5=O)c(N)nc3Cl)cc2)CC1 [I-230, 6-(2-amino-6-chloro-5-(4-(1-methyl-1,2,3,6-tetrahydropyridin-4-yl)phenyl)pyridin-3-yl)-3,4-dihydroisoquinolin-1(2H)-one] | 11 to 100 nM | > 1000 nM
20 | CN1CCC(c2ccc(-c3cc(-c4ccc5c(c4)CCNC5=O)c(N)nc3Cl)cc2)CC1 [I-231, 6-(2-amino-6-chloro-5-(4-(1-methylpiperidin-4-yl)phenyl)pyridin-3-yl)-3,4-dihydroisoquinolin-1(2H)-one] | 11 to 100 nM | > 1000 nM
21 | CN1CC=C(c2ccc(-c3cc(-c4cc5c(cc4F)C(=O)NCC5)c(N)nc3Cl)cc2)CC1 [I-232, 6-(2-amino-6-chloro-5-(4-(1-methyl-1,2,3,6-tetrahydropyridin-4-yl)phenyl)pyridin-3-yl)-7-fluoro-3,4-dihydroisoquinolin-1(2H)-one] | 11 to 100 nM | > 1000 nM

Source: patent US20240343704A1, “HALO-SUBSTITUTED AMINO PYRIDINE COMPOUNDS AS INHIBITORS OF THE HAEMATOPOIETIC PROGENITOR KINASE 1 (HPK1)” (priority 2021, published 2024)
